{"source": "patent US8901317B2", "about": "“Tryptamine derivatives, their preparation and their use in gastropathy” (Council of Scientific & Industrial Research, priority 2010, dated 2014)", "key": {"[1]": {"assay": "DPPH free radical scavenging assay", "settings": "compounds 100 μM; 517 nm (Table 2)", "protocol": "The antioxidant property of different tryptamine derivatives were assessed and compared with the known antioxidants for potency. A range of different synthesized compounds and known anti oxidants, quercetin, ascorbic acid and gallic acid were analyzed by the FRAP assay. The FRAP assay is based on the measurement of the ability of the substance to reduce Fe^3+ to Fe^2+, greater the reducing ability greater the anti oxidant property. Antioxidants reduce Fe^3+-TPTZ in to blue colored Fe^2+-TPTZ complex, which results in an increase in the absorbance at 595 nm giving a FRAP value. […] Absorbance changes at different time intervals (FIG. 6) as well as at different concentrations (FIG. 7) at time 6 min in the presence of different compounds at 595 nm were measured. FRAP values at 6 min and 65 min were calculated from different tryptamine derivatives and some known antioxidant (Table 1). […] DPPH assay based on the DPPH free radicals scavenging power of the antioxidant molecules. Higher the scavenging power higher will be the antioxidant property. […] This assay was performed in presence of some known antioxidants such as ascorbic acid, quercetin and gallic acid.\n2,2-Diphenyl-1-Picrylhydrazyl (DPPH) is a stable free radical that can accept hydrogen radical or an electron and become a stable diamagnetic molecule. The antioxidants can scavenge the DPPH by donating hydrogen as visualized by discoloration of the DPPH radical from purple to yellow (Pal, C; et al. Free Radic Biol Med, 49(2), 258-267; 2010, Ben Farhat, M.; et al. J. Agric. Food Chem. 57:10349-10356; 2009, Han, J; et al. Wei Sheng Yan Jiu 38:596-598; 2009). The assay system contained 1 mL of compounds under investigation dissolved (in methanol, some compound dissolved in water) at different concentrations in the range 10-100 μM solution and 4 ml of DPPH (0.15 mM) in methanol (80% in water v/v) and mixed well. It was allowed to stand for 30 min at 27° C. away from light. Ascorbic acid at the same concentration was taken as positive control. The absorbance of the solution was measured spectrophotometrically at 517 nm and from the decrease of absorption; the antioxidant activity of different tryptamine derivatives were determined."}, "[2]": {"assay": "Ferric reducing antioxidant power (FRAP) assay", "settings": "compound at 10 μM relative to ferrous sulfate; for FRAP Value6 min (μM) M ± SD: 6 min; for FRAP Value65 min (μM) M ± SD: 65 min", "protocol": "The antioxidant property of different tryptamine derivatives were assessed and compared with the known antioxidants for potency. […] The FRAP assay is based on the measurement of the ability of the substance to reduce Fe^3+ to Fe^2+, greater the reducing ability greater the anti oxidant property. Antioxidants reduce Fe^3+-TPTZ in to blue colored Fe^2+-TPTZ complex, which results in an increase in the absorbance at 595 nm giving a FRAP value. […] Absorbance changes at different time intervals (FIG. 6) as well as at different concentrations (FIG. 7) at time 6 min in the presence of different compounds at 595 nm were measured. FRAP values at 6 min and 65 min were calculated from different tryptamine derivatives and some known antioxidant (Table 1). […] DPPH assay based on the DPPH free radicals scavenging power of the antioxidant molecules. Higher the scavenging power higher will be the antioxidant property.\nThe assay was performed in a 96-well microplate. FRAP reagent was prepared by mixing of 10 ml acetate buffer (200 mM, pH-3.6), 1 ml of 2,4,6-tris(2-pyridyl)-s-triazine (TPTZ) solution (10 mM in 40 mM HCl) and 1 ml of ferric chloride solution (20 mM) in distilled water. For 1 h the mixture was kept in a water bath at 37° C. In 96-well microplates, 25 μL of the compounds under investigation dissolved (in methanol, some compound dissolved in water) at different concentrations in the range 1-25 μM was placed in triplicate and freshly prepared FRAP solution (175 μL) was added to this sample. A micro plate reader monitored the absorbance at 595 nm at different time intervals for up to 150 min. The absorbance of a mixture 175 μL TRAP sol and 25 μL methanol or water was taken which was subtracted from the absorbance of the samples at each time interval to calculate the absorbance change (ΔA). The FRAP value at time interval t (FRAP valuet) was calculated according to the formula: FRAP valuet(M)=(ΔatFl/ΔatFe^2+)×10^−5 Where ΔatFl is the absorbance change after the time interval t (6 and 65 min) relative to the tested flavonoid at the concentration of 10 μM and ΔatFe^2+ is the absorbance change at the same time interval relative to ferrous sulfate at the same concentration (Pal, C; et al. Free Radic Biol Med, 49(2), 258-267, 2010, Firuzi, O; et al. Biochim. Biophys. Acta 1721:174-184; 2005)."}, "rats": {"tested_on": "rats", "assay": "Toxicity (death) after injection in rats", "assay_type": "in vivo", "settings": "injected; dose not given"}, "[3]": {"settings": "literature (Shahrzad et al. 2001); cited from earlier work"}, "CaCo2 colon cancer cells": {"tested_on": "CaCo2 colon cancer cells", "settings": "literature (Shoeb et al. 2006); cited from earlier work"}}, "data": [{"smiles": "NCCc1c[nH]c2ccc(OC(=O)CCCC(=O)NCCc3c[nH]c4ccc(O)cc34)cc12", "note": "[Compound 6c, 3-(2-aminoethyl)-1H-indol-5-yl 5-(2-(5-hydroxy-1H-indol-3-yl)ethylamino)-5-oxopentanoate]", "values": [{"measurement": "Absorbance change (ΔA) at 30 min", "setting": "[1]", "result": "0.19 ± 0.03"}, {"measurement": "FRAP Value6 min (μM) M ± SD", "setting": "[2]", "result": "17.51 ± 0.38", "unit": "µM"}, {"measurement": "FRAP Value65 min (μM) M ± SD", "setting": "[2]", "result": "29.78 ± 3.87", "unit": "µM"}, {"measurement": "death of rats after injection", "setting": "rats", "result": "all the rats were found dead within 20 mins"}]}, {"smiles": "O=C(O)c1cc(O)c(O)c(O)c1", "note": "[Gallic acid, reference compound]", "values": [{"measurement": "bioavailability in plasma", "setting": "[3]", "result": "low"}, {"measurement": "FRAP Value6 min (μM) M ± SD", "setting": "[2]", "result": "33.90 ± 4.92", "unit": "µM"}, {"measurement": "FRAP Value65 min (μM) M ± SD", "setting": "[2]", "result": "46.59 ± 8.41", "unit": "µM"}]}, {"smiles": "O=C(/C=C/c1ccc(O)cc1)NCCc1c[nH]c2ccc(O)cc12", "note": "[Compound 2b, (E)-N-(2-(5-hydroxy-1H-indol-3-yl)ethyl)-3-(4-hydroxyphenyl)acrylamide]", "values": [{"measurement": "in vitro cytotoxic activity", "setting": "CaCo2 colon cancer cells", "result": "shows in vitro cytotoxic activity"}, {"measurement": "Absorbance change (ΔA) at 30 min", "setting": "[1]", "result": "0.12 ± 0.01"}, {"measurement": "FRAP Value6 min (μM) M ± SD", "setting": "[2]", "result": "3.09 ± 0.13", "unit": "µM"}, {"measurement": "FRAP Value65 min (μM) M ± SD", "setting": "[2]", "result": "7.44 ± 1.47", "unit": "µM"}]}]}
